Experimental data: patent US9464098B2, “Substituted triazole boronic acid compounds” (Hoffmann-La Roche Inc., priority 2012, dated 2016)

How the values were obtained:
[1] = system: IP10 level in PBMCs stimulated with CpG Type A; test: PBMC IP-10 Assay; assay type: cell-based; conditions: PBMCs stimulated with CpG Type A 2.5 μM, overnight, IP10 AlphaLISA
Description: PBMCs were isolated from whole blood as follows: Blood was collected in a sterile environment in heparinized tubes. Blood was diluted with an equal volume PBS/2% FCS and 30 ml of this mixture was added to ACCUSPIN tubes containing 15 ml Histopaque-1077 already centrifuged at 800 g for 30 seconds and warmed up at room temperature. The tubes were then centrifuged at 800 g for 20 minutes at room temperature with no brake. The mononuclear band, just above the polyethylene frit, was removed by Pasteur pipet. These mononuclear cells were washed three times with sterile PBS, counted, and resuspended in RPMI 1640 supplemented with 10% heat inactivated fetal calf serum, 10 mM HEPES, 1 mM sodium pyruvate, penicillin (50 U/ml), streptomycin (50 μg/ml) and glutamine (2 mM) to approximately 1.5×10^6/ml. Approximately 2×10^5 cells/well were plated in 96 well tissue culture plates (BD Falcon 353072), and preincubated 60 mi/37° C. with a titration of compounds, in a final concentration of 1% DMSO. Cells were then stimulated with CpG Type A (Invivogen, Cat # tlrl-2216; ODN 2216) at a final concentration of 2.5 μM. Cells were incubated overnight, and supernatants were removed. PBMC viability of cells remaining in the well was measured with ATPlite luminescence assay (Perkin-Elmer) per the manufacturer's instructions. Luminescence was measured on the Perkin-Elmer Envision, using the luminescence filter. IP10 level was measured with CXCL10/IP10 AlphaLISA kit (Perkin-Elmer) per the manufacturer's instructions, except halving all volumes. Fluorescence was measured on the Envision Multilabel plate reader, using the AlphaScreen standard settings.

[2] = system: β 2c/2i (trypsin-like); test: Cell-Based Proteasome Activity/Selectivity Assay (Ramos cells), substrate (KQL)2Rh110; conditions: β 2c/2i substrate (KQL)2Rh110, highest concentration tested 20 μM
Excerpt: (§1) Cell-Based Proteasome Activity/Selectivity Assay
(§2) The Cell-Based Proteasome subunit activity/selectivity assay was a panel of 5 fluorogenic assays that independently measured the activity of β5c or β 5i (chymotrypsin-like activity), β 2c/2i (trypsin-like), and β 1c or β 1i (caspase-like) protease activity associated with the proteasome complex in cultured cells. Specifically, the following substrates were used for respective subunit activities: β 1i: (PAL)2Rh110, β 1c: (LLE)2Rh110, β 2c/2i: (KQL)2Rh110, β 5c: (WLA)2Rh110, β 5i: (ANW)2Rh110. The following procedure was followed:
(§3) Cell preparation: Plated 25 μl of Ramos cells (2×10^6/ml in DPBS) into half area plate (PerkinElmer Cat 6005569) to final 5×10^4 cells/well. Added 0.5 μl of 100× 4-fold serial diluted test compounds or DMSO to each well. Highest concentration of compound tested was 20 μM, thus compound serial dilution started from […]. Incubated for 30 minutes at 37° C. Then equilibrated at room temperature for 15 minutes. Added 25 μl of 2× reaction mix consisting of 0.025% digitonin, 20 μM of each substrates and 0.5M sucrose in DPBS. Shaked for one minute @ 700 rpm. Incubated for 120 min at room temperature. Then read the plates with an Envision multilabel plate reader (PerkinElmer) with 500 nm excitation/519 nm emission.

[3] = target: T1, β 1i (caspase-like) (Homo sapiens, UniProt P28065+P40306); test: Cell-Based Proteasome Activity/Selectivity Assay (Ramos cells), substrate (PAL)2Rh110; conditions: β 1i substrate (PAL)2Rh110, highest concentration tested 20 μM
T1 construct: protease activity associated with the proteasome complex in cultured cells; endogenous in cells; host or cells: Ramos cells
Excerpt: as §1, §2, §3

[4] = target: T2, β 5i (chymotrypsin-like activity) (Homo sapiens, UniProt P20618+P28062); test: Cell-Based Proteasome Activity/Selectivity Assay (Ramos cells), substrate (ANW)2Rh110; conditions: β 5i substrate (ANW)2Rh110, highest concentration tested 20 μM, read-out: Ic50: ramos:ac-(anw)2-r110
T2 construct: protease activity associated with the proteasome complex in cultured cells; endogenous in cells; host or cells: Ramos cells
Excerpt: as §1, §2, §3

[5] = target: T3, β5c (chymotrypsin-like activity) (Homo sapiens, UniProt P20618+P28074); test: Cell-Based Proteasome Activity/Selectivity Assay (Ramos cells), substrate (WLA)2Rh110; conditions: β 5c substrate (WLA)2Rh110, highest concentration tested 20 μM
T3 construct: protease activity associated with the proteasome complex in cultured cells; endogenous in cells; host or cells: Ramos cells
Excerpt: as §1, §2, §3

[6] = target: T4, β 1c (caspase-like) (Homo sapiens, UniProt P28072+Q99436); test: Cell-Based Proteasome Activity/Selectivity Assay (Ramos cells), substrate (LLE)2Rh110; conditions: β 1c substrate (LLE)2Rh110, highest concentration tested 20 μM
T4 construct: protease activity associated with the proteasome complex in cultured cells; endogenous in cells; host or cells: Ramos cells
Excerpt: as §1, §2, §3

[7] = system: DSS-induced colitis model in mice; conditions: cited from earlier work
[8] = system: mouse CAIA and CIA arthritis models; conditions: cited from earlier work
[9] = system: Th1/17 differentiation, B cell effector functions and production of inflammatory cytokines (IL-6, TNF-α, IL-23); conditions: cited from earlier work
[10] = system: MRL/lpr lupus-prone mice; conditions: cited from earlier work

Structure (SMILES)	IC50 [2] [nM]	IC50 [3] [nM]	IC50 [4] [nM]	IC50 [5] [nM]	IC50 [6] [nM]	EC50 [1] [nM]	inflammation and tissue destruction [7]	disease score [8]	block of Th1/17 differentiation, B cell effector functions and production of inflammatory cytokines [9]	disease progression [10]	plasma cells numbers and levels of anti-dsDNA IgG [10]
O=C(N[C@@H](Cc1ccccc1)B(O)O)c1cn(CCNC(=O)c2ccc(C(F)(F)F)cc2F)nn1 [Example 3, (R)-1-(1-(2-(2-Fluoro-4-(trifluoromethyl)benzamido)ethyl)-1H-1,2,3-triazole-4-carboxamido)-2-phenylethylboronic acid]	> 20000	10	2	6	7340	26.8	–	–	–	–	–
COc1cc(C(F)(F)F)ccc1C(=O)NCCn1cc(C(=O)N[C@@H](Cc2ccccc2)B(O)O)nn1 [Example 4, (R)-1-(1-(2-(2-Methoxy-4-(trifluoromethyl)benzamido)ethyl)-1H-1,2,3-triazole-4-carboxamido)-2-phenylethylboronic acid]	> 20000	9	2	20	7480	12.2	–	–	–	–	–
COc1ccc(C[C@H](NC(=O)[C@H](C)NC(=O)CN2CCOCC2)C(=O)N[C@@H](Cc2ccccc2)C(=O)[C@@]2(C)CO2)cc1 [PR-957]	–	–	–	–	–	–	reduced inflammation and tissue destruction	significantly decrease disease score	potently block	prevented disease progression	reduced plasma cells numbers and levels of anti-dsDNA IgG

More lines, main results first:

IC50 [2] [nM]	IC50 [3] [nM]	IC50 [4] [nM]	IC50 [5] [nM]	IC50 [6] [nM]	Structure (SMILES)	EC50 [1] [nM]	inflammation and tissue destruction [7]	disease score [8]	block of Th1/17 differentiation, B cell effector functions and production of inflammatory cytokines [9]	disease progression [10]	plasma cells numbers and levels of anti-dsDNA IgG [10]
> 20000	4	2	39	320	COc1ccc(C(=O)NCCn2cc(C(=O)N[C@@H](CC(C)C)B(O)O)nn2)c(OC)c1OC [Example 1, (R)-3-Methyl-1-(1-(2-(2,3,4-trimethoxybenzamido)ethyl)-1H-1,2,3-triazole-4-carboxamido)butylboronic acid]	29.5	–	–	–	–	–
13500	25	7	16	6630	COc1ccc(C(=O)NCCn2cc(C(=O)N[C@@H](Cc3ccccc3)B(O)O)nn2)c(OC)c1OC [Example 2, (R)-2-Phenyl-1-(1-(2-(2,3,4-trimethoxybenzamido)ethyl)-1H-1,2,3-triazole-4-carboxamido)ethylboronic acid]	33.7	–	–	–	–	–
